# Results taken from US20030032612A1 (priority 1997, published 2003).
# Several values for one entry are separate records, joined by “and”; a condition that tells them apart may be missing. Equal values may be shown once.
# Key:
# Format in all cases: cell-based, E. coli
# AG 102 mar mutant = test: Gradient plate assay, MIC of antibiotics in AG 102 with plasmids; details: Escherichia coli
# Experimental: To establish further the inhibitory efficacy of antisense marA sequences, KMN23 (the same DNA vector described above, containing both the marR and the marA genes cloned in the antisense direction) was also expressed in the presence of various antibiotics (tetracycline (Tet), chloramphenicol (Cml), ampicillin (Amp) and rifampicin (Rif). The effect of KMN23 was assessed by measuring cell growth inhibition by the gradient plate method as described in Example 9. The results are shown in TABLE 3.
# (§1) Bacterial susceptibility to tetracycline hydrochloride, chloramphenicol, ampicillin, kanamycin, rifampin, nalidixic acid and norfloxacin was assayed by the gradient plate method. (Microbiology: Including Immunology and Molecular Genetics (3rd ed.)(Davis et al. eds.(1980)J. P. Lippincott Co., Philadelphia, Pa.).
# ML308-C2 = test: MIC on antibiotic gradient plates in Mar mutant ML308-C2; details: Escherichia coli, read-out: MIC of norfloxacin
# Experimental: Antibiotic resistant mutants of ML308-225 (Rahman et al. (1991) Antisense Res. Dev. 1:319-327) were grown and maintained at 30° C. in LB broth. These mutants were selected by spreading washed overnight cultures onto a LB agar plate containing chloramphenicol (5 μg/ml, Sigma, St. Louis, Mo.) and incubated at 30° C for 48-72 hours. Single colonies appearing after 48 hours were picked for further study.
# One mutant showing increased minimal inhibitory concentrations (hereinafter referred to as MIC) to tetracycline, chloramphenicol, ampicillin, nalidixic acid, and norfloxacin was selected and designated ML308-C2. Sequencing confirmed a C® T substitution in amino acid 117 of marR, which results in a truncated MarR protein. […] Northern analysis using a marA DNA probe confirmed that ML308-C2 over expresses marA and was a Mar mutant (unpublished data).
# as §1
# [1] = test system: ML308-225-C2 (Mar mutant); test: Augmentation of bactericidal activity of norfloxacin by oligonucleotides, colony counts
SMILES,MIC (AG 102 mar mutant),MIC (ML308-C2),"activity at 0.5 µg/mL ([1]; Escherichia coli, norfloxacin 0.5 µg/mL alone, 1 hour, Table 5, read-out: % OF CONTROL (untreated cells))","% OF CONTROL CELLS ([1]; norfloxacin 0.5 μg/ml alone, oligo 1284 0 μM, duplicate experiments)"
"CN(C)[C@@H]1C(O)=C(C(N)=O)C(=O)[C@@]2(O)C(O)=C3C(=O)c4c(O)cccc4[C@@](C)(O)[C@H]3C[C@@H]12 [Tet, tetracycline]",12.5 µg/mL,–,–,–
"O=C(N[C@H](CO)[C@H](O)c1ccc([N+](=O)[O-])cc1)C(Cl)Cl [Cml, chloramphenicol]",34.2 µg/mL,–,–,–
"CCn1cc(C(=O)O)c(=O)c2cc(F)c(N3CCNCC3)cc21 [Norfloxacin, norfloxacin]",–,0.5 µg/mL,65%,71% and 57%
"CO[C@H]1/C=C/O[C@@]2(C)Oc3c(C)c(O)c4c(O)c(c(/C=N/N5CCN(C)CC5)c(O)c4c3C2=O)NC(=O)/C(C)=C\C=C\[C@H](C)[C@H](O)[C@@H](C)[C@@H](O)[C@@H](C)[C@H](OC(C)=O)[C@@H]1C [Rif, rifampicin]",8.8 µg/mL,–,–,–
"CC1(C)S[C@@H]2[C@H](NC(=O)[C@H](N)c3ccccc3)C(=O)N2[C@H]1C(=O)O [Amp, ampicillin]",17.7 µg/mL,–,–,–
